The experiment deals with Beta-secretase 1 (Homo sapiens, UniProt P56817). Kind of experiment: D3R2027.
Source text: D3R2027

61 compounds from BindingDB's records for doi:10.7270/Q2N301S8 (D3R/Abbott, 2020) can be followed below.

Beta-secretase 1, sequence (P56817 whole entry): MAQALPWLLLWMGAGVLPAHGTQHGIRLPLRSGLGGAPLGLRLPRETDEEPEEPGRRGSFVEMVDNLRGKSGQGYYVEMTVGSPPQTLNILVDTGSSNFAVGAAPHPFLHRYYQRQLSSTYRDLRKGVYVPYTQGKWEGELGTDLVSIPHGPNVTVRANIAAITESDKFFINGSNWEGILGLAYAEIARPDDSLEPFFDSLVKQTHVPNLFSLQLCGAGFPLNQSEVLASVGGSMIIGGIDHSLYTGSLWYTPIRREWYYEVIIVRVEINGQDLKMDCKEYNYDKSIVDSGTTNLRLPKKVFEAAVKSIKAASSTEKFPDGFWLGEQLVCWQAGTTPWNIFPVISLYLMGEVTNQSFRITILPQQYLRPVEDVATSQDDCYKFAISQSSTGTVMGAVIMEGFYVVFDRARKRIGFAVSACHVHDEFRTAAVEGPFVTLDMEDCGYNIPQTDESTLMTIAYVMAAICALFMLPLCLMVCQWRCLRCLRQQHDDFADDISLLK

Take `CCCCNC(=O)[C@H](C)C[C@H](O)[C@@H]1C[C@H](C)CCCCCN(CC)C(=O)c2cc(OCC)cc(c2)C(=O)N1` [BACE_1]: inhibition was half-maximal at 16 nM (IC50). As for `C[C@@H]1CCCCCCOCC(=O)N(C)[C@@H](C)C(=O)N[C@H]([C@H](O)CNC2(c3cccc(C(C)(C)C)c3)CC2)C1` [BACE_4], the IC50 (as a rule, the point on the concentration scale where inhibition reaches its midpoint) amounted to 7.5 nM. `CCCc1cc(CNC[C@@H](O)[C@@H]2C[C@H](C)CCCCCCOCC(=O)N(C)[C@@H](C)C(=O)N2)n[nH]1` [BACE_5] displayed an IC50 of 400 nM. Take `CCN1CCCCC[C@@H](C)C[C@@H]([C@H](O)CNCc2cccc(C(C)C)c2)NC(=O)c2cccc(c2)C1=O` [BACE_6]: the IC50 is 21 nM. For the compound `CC(C)c1cccc(CNC[C@@H](O)[C@@H]2C[C@H](C)CCCCCN([C@H](C)c3ccccc3)C(=O)c3cc(cc(-c4ncco4)c3)C(=O)N2)c1` [BACE_7], the IC50 was found to be 2 nM. In the case of `CC(C)c1cccc(CNC[C@@H](O)[C@@H]2C[C@H](C)CCOCCCCNc3cc(cc(Cl)n3)C(=O)N2)c1` [BACE_8] it was 31 nM; in that of `COCc1cc2cc(c1)C(=O)N[C@H]([C@H](O)CNCc1cccc(C(C)C)c1)C[C@H](C)CCCCCCCN2` [BACE_9], 93 nM; in that of `COCc1cc2cc(c1)C(=O)N[C@H]([C@H](O)CNCc1cccc(C(C)C)c1)C[C@H](C)CCOCCCCN2` [BACE_10], 570 nM. In the case of `CC(C)c1cccc(CNC[C@@H](O)[C@@H]2Cc3cccc(c3)OCCCCCC(=O)N(C)[C@@H](C)C(=O)N2)c1` [BACE_11] it was 32 nM; in that of `COc1cc2cc(n1)NCCCCc1cccc(c1)C[C@@H]([C@H](O)CNCc1cccc(C(C)C)c1)NC2=O` [BACE_12], 7.8 nM.

Compound `COCc1cc2cc(c1)C(=O)N[C@H]([C@H](O)[C@H]1CO[C@@H](COC)CN1)Cc1cccc(c1)OCCCCN2` [BACE_13] came in with an IC50 of 8300 nM. As to `CC(=O)c1cc2cc(c1)C(=O)N[C@H]([C@H](O)CNC1(c3cccc(C(C)C)c3)CC1)Cc1cccc(c1)OCCCCN2` [BACE_14], the IC50 is 9 nM. To `COCc1cc2cc(c1)C(=O)N[C@H]([C@H](O)CNCc1cccc(C(C)C)c1)Cc1cccc(c1)OCCCCO2` [BACE_15] belongs 72 nM; to `CC(=O)COc1cc2cc(c1)C(=O)N[C@H]([C@H](O)CNCc1cccc(C(C)C)c1)Cc1cccc(c1)OCCCCO2` [BACE_16], 34 nM; to `CCCCNC(=O)[C@H](C)C[C@H](O)[C@@H]1C[C@H](C)CCc2cccc(c2)CS(=O)(=O)C[C@@H](C)C(=O)N1` [BACE_19], 260 nM. Compound `CCCCNC(=O)[C@H](C)C[C@H](O)[C@H](Cc1ccccc1)NC(=O)c1cc(NCCCC)nc(OC)c1` [BACE_20] yielded an IC50 of 770 nM. On to `CC(C)c1cccc(CNC[C@@H](O)[C@@H]2C[C@H](C)CC/C=C/CCCCC(=O)N(C)[C@@H](C)C(=O)N2)c1` [BACE_21], for which the 50% inhibitory concentration (IC50) stood at 300 nM.

For `C[C@@H]1CCCCCCCCC(=O)N(C)[C@@H](C)C(=O)N[C@H]([C@H](O)CN[C@@H](C)c2cccc(Br)c2)C1` [BACE_22], the IC50 turned out to be 55 nM. In the case of `C[C@@H]1CCCCCCCCC(=O)N(C)[C@@H](C)C(=O)N[C@H]([C@H](O)CNC2(c3cc(C(C)(C)C)ccn3)CC2)C1` [BACE_23] it was 2 nM; in that of `CCOc1ccc(C(F)(F)F)c(CNC[C@@H](O)[C@@H]2C[C@H](C)CCCCCCCCC(=O)N(C)[C@@H](C)C(=O)N2)c1` [BACE_24], 53 nM.

Compound `CC(C)Cc1cncc(CNC[C@@H](O)[C@@H]2C[C@H](C)CC/C=C/CCCCC(=O)N(C)[C@@H](C)C(=O)N2)c1` [BACE_25] yielded an IC50 of 130 nM. Compound `CC(C)Cc1cncc(C(C)(C)NC[C@@H](O)[C@@H]2C[C@H](C)CCCCCCCCC(=O)N(C)[C@@H](C)C(=O)N2)c1` [BACE_26] yielded an IC50 of 270 nM. Compound `C[C@@H]1CCCCCCCCC(=O)N(C)[C@@H](C)C(=O)N[C@H]([C@H](O)CNC(C)(C)c2cc(CC(C)(C)C)on2)C1` [BACE_27] had an IC50 of 5.8 nM. In the case of `C[C@@H]1CCCCCCCCC(=O)N(C)[C@@H](C)C(=O)N[C@H]([C@H](O)CNC(C)(C)c2cccc(Br)c2)C1` [BACE_28] it was 230 nM. Compound `C[C@@H]1CCCCCCCCC(=O)N(C)[C@@H](C)C(=O)N[C@H]([C@H](O)CNCc2cc(CC(C)(C)C)on2)C1` [BACE_29] registered an IC50 of 3.5 nM. To `C[C@@H]1CCCCCCCCC(=O)N(C)[C@@H](C)C(=O)N[C@H]([C@H](O)CN[C@@H](C)c2cc(CC(C)(C)C)on2)C1` [BACE_30] belongs 1 nM; to `C[C@@H]1CCCCCCCCC(=O)N(C)[C@@H](C)C(=O)N[C@H]([C@H](O)CNC(C)(C)c2nnc(CC(C)(C)C)s2)C1` [BACE_31], 240 nM. `CC(C)c1cccc(CNC[C@@H](O)[C@@H]2C[C@H](C)CCCCCCCCC(=O)N(C)CC(=O)N2)c1` [BACE_32] gave an IC50 of 360 nM.

`CC(C)c1cccc(CNC[C@@H](O)[C@@H]2C[C@H](C)CCCCC[C@H](C)CCC(=O)N(C)[C@@H](C)C(=O)N2)c1` [BACE_33] came in with an IC50 of 19 nM. In the case of `CC(C)c1cccc(CNC[C@@H](O)[C@@H]2C[C@H](C)CCCCCOCC(=O)N(C)[C@@H](C)C(=O)N2)c1` [BACE_34] it was 1000 nM; in that of `C[C@@H]1CCCCCCOCC(=O)N(C)[C@@H](C)C(=O)N[C@H]([C@H](O)CNCc2cncc(Br)c2)C1` [BACE_35], 510 nM. In the case of `CC(C)Oc1ccc(C2CC2)cc1CNC[C@@H](O)[C@@H]1C[C@H](C)CCCCCCOCC(=O)N(C)[C@@H](C)C(=O)N1` [BACE_36] it was 1500 nM; in that of `C[C@@H]1CCCCCCNC(=O)C[C@@H](C)C(=O)N[C@H]([C@H](O)CNCc2cccc(C(C)(C)C)c2)C1` [BACE_37], 5900 nM; in that of `C[C@@H]1CCCCCCCCS(=O)(=O)C[C@@H](C)C(=O)N[C@H]([C@H](O)CNC2(c3cccc(C(C)(C)C)c3)CC2)C1` [BACE_38], 24 nM. `C[C@@H]1CCCCCCCCS(=O)(=O)C[C@@H](C)C(=O)N[C@H]([C@H](O)CN[C@@H](C)c2cc(CC(C)(C)C)on2)C1` [BACE_39] returned an IC50 of 21 nM. To `CCN1CCCCC[C@@H](C)C[C@@H]([C@H](O)CNCc2cccc(C(C)C)c2)NC(=O)c2cc(cc(-c3ncco3)c2)C1=O` [BACE_40] belongs 3.5 nM; to `Cc1cc2cc(n1)NCCCCCCC[C@@H](C)C[C@@H]([C@H](O)CNCc1cccc(C(C)C)c1)NC2=O` [BACE_41], 29 nM; to `CC(C)c1cccc(CNC[C@@H](O)[C@@H]2C[C@H](C)CCCCCCCN(C)c3cc(ccn3)C(=O)N2)c1` [BACE_42], 740 nM. In turn, `COc1cc2cc(n1)NCCCCCCC[C@@H](C)C[C@@H]([C@H](O)CNCc1cccc(C(C)C)c1)NC2=O` [BACE_43] displayed an IC50 of 14 nM. Take `Cc1cc2cc(n1)N(C)CCCCCC[C@@H](C)C[C@@H]([C@H](O)CNCc1cccc(C(C)C)c1)NC2=O` [BACE_44]: the IC50 turned out to be 2100 nM. To `C/C1=C\CCCCCCNc2cc(cc(C)n2)C(=O)N[C@H]([C@H](O)CNCc2cccc(C(C)C)c2)C1` [BACE_45] belongs 7.3 nM.

`CC(C)c1cccc(CNC[C@@H](O)[C@@H]2C[C@H](C)C/C=C\CCCCNc3cc(cc(Cl)n3)C(=O)N2)c1` [BACE_46] displayed a 50% inhibitory concentration (IC50) of 9.5 nM. `COCc1cc2cc(n1)NCCCCOCC[C@@H](C)C[C@@H]([C@H](O)CNC1(c3cccc(C(C)(C)C)c3)CC1)NC2=O` [BACE_47] displayed an IC50 of 5.5 nM. In the case of `Cc1cc2cc(n1)NCCCCOCC[C@@H](C)C[C@@H]([C@H](O)CNC(C)(C)c1cc(CC(C)(C)C)on1)NC2=O` [BACE_48] it was 83 nM. To `C/C1=C\[C@@H]([C@H](O)CNCc2cccc(C(C)C)c2)NC(=O)c2cc(Cl)nc(c2)NCCCCOCC1` [BACE_49] belongs 470 nM. To `Cc1cc2cc(n1)NN(C(=O)c1ccc(F)cc1)CCCCCC[C@@H](C)C[C@@H]([C@H](O)CNCc1cccc(C(C)C)c1)NC2=O` [BACE_50] belongs 46 nM; to `CC(C)c1cccc(CNC[C@@H](O)[C@@H]2C[C@H](C)CCCCCCCOc3cc(cc(Cl)n3)C(=O)N2)c1` [BACE_51], 29 nM. Regarding `CC(C)c1ccnc(C2(NC[C@@H](O)[C@@H]3C[C@H](C)CCCCCCCOc4cc(cc(Cl)n4)C(=O)N3)CC2)c1` [BACE_52], the IC50 was found to be 7.5 nM. In the case of `CC(C)c1cccc(CNC[C@@H](O)[C@@H]2C[C@H](C)CCCCCCCCc3cc(ccn3)C(=O)N2)c1` [BACE_53] it was 10000 nM. Turning to `Cc1cc2cc(n1)OCCCOCC[C@@H](C)C[C@@H]([C@H](O)CNCc1cccc(C(C)C)c1)NC2=O` [BACE_54], the IC50 amounted to 1700 nM.

In the case of `CC(C)c1cccc(C(C)(C)NC[C@@H](O)[C@@H]2C[C@H](C)CCCCCCCNc3cccc(c3)C(=O)N2)c1` [BACE_55], 540 nM corresponded to half-maximal inhibition (IC50). Compound `C[C@@H]1CCCCCCCNc2cccc(c2)C(=O)N[C@H]([C@H](O)CNC2(c3cccc(C(C)(C)C)c3)COC2)C1` [BACE_56] displayed an IC50 of 170 nM. The compound `C[C@@H]1CCCCCCCNc2cccc(c2)C(=O)N[C@H]([C@H](O)CNC(C)(C)c2cc(CC(C)(C)C)on2)C1` [BACE_57] yielded an IC50 of 23 nM.

As to `C[C@@H]1CCCCCCCNc2cccc(c2)C(=O)N[C@H]([C@H](O)CNCc2cc(C(C)(C)C)[nH]n2)C1` [BACE_58], it took 1900 nM to reach half-maximal inhibition (IC50).

With `C[C@@H]1CCCCCCCNc2cc(cc(-c3ncco3)c2)C(=O)N[C@H]([C@H](O)CNC2(c3cc(C(C)(C)C)ccn3)CC2)C1` [BACE_59], the midpoint of inhibition, the IC50, lay at 1.7 nM. In the case of `COCc1cc2cc(c1)C(=O)N[C@H]([C@H](O)CNC1(c3cccc(C(C)(C)C)c3)COC1)C[C@H](C)CCCCCCCN2` [BACE_60] it was 33 nM; in that of `COCc1cc2cc(c1)C(=O)N[C@H]([C@H](O)CNCc1cc(OC)cc(OC)c1)C[C@H](C)CCCCCCCN2` [BACE_61], 1500 nM. With `COCc1cc2cc(c1)C(=O)N[C@H]([C@H](O)CNCc1ccc3c(c1)OCCCO3)C[C@H](C)CCCCCCCN2` [BACE_62], the midpoint of inhibition, the IC50, lay at 3400 nM.

On to `COCc1cc2cc(c1)C(=O)N[C@H]([C@H](O)CN[C@H]1CC(C)(C)Oc3ccc(C(C)C)cc31)C[C@H](C)CCCCCCCN2` [BACE_63], for which half-maximal inhibition (IC50) was put at 1 nM. In the case of `CCCc1cc(CNC[C@@H](O)[C@@H]2C[C@H](C)CCCCCCCNc3cc(COC)cc(c3)C(=O)N2)no1` [BACE_64] it was 570 nM; in that of `COCc1cc2cc(c1)C(=O)N[C@H]([C@H](O)CNCCc1ccncc1)C[C@H](C)CCCCCCCN2` [BACE_65], 1700 nM.
